Data published in US5688787A, “Substituted β-lactam compounds useful as hypochlesterolemic agents and processes for the preparation thereof” (priority 1996, dated 1997).
pIC50: −log10 of the molar value. Read-outs that look alike come from different tables or passages of the source.

Legend:
ACAT = target: T1, ACAT (Rattus norvegicus, UniProt Q7TQM4); test: ACAT Assay (in vitro); type: biochemical; settings: for inhibition at 10 µM: Conc. 10 µM, negative = apparent stimulation, read-out: ACAT (in vitro) % Inhib.; for pIC50: rat liver microsomes, read-out: ACAT (in vitro) IC50
T1 construct: Rat liver microsomes are used as the source of ACAT; from tissue; host or cells: rat liver microsomes
T1 sequence (Q7TQM4 1-524): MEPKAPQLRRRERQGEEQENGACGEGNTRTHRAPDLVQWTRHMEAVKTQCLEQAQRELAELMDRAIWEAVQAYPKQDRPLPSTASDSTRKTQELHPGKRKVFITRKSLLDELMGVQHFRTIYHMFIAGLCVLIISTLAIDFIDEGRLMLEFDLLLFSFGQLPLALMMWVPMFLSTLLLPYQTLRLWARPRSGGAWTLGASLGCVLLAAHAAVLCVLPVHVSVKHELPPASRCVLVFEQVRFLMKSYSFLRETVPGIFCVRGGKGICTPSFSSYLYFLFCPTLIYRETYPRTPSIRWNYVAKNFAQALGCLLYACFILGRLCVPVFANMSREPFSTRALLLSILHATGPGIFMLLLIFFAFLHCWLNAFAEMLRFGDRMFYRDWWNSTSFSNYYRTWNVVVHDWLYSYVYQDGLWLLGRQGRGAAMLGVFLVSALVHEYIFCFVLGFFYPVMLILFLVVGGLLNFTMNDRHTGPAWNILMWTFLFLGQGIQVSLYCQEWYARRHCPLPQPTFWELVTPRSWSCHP
Protocol: This assay measures the activity of ACAT by measuring the ACAT-mediated transfer of tritiated oleic acid from acyl-CoA to cholesterol to give labelled cholesteryl oleate. Rat liver microsomes are used as the source of ACAT. Assays are performed in round bottom microtiterplates using a total incubation volume of 50 μL. […] The microtiterplate is then floated on the surface of a 37° C. water bath for fifteen minutes. Incubations are started by the addition of 3 μL ^3 H-acyl CoA (1 μCi/well, final concentration of 10 μM acyl CoA). The plate is then returned to the water bath for 15 minutes. The incubations are then terminated by application of 15 μL from each incubation to individual lanes on a thin layer plate (Silica Gel GF 20×20 cm). Standards are applied to several lanes so that the cholesteryl ester band can be identified. After drying, the plates am eluted with 90:10:1 petroleum ether:diethyl ether:acetic acid. The standards am visualized via iodine vapor, and the regions corresponding to cholesteryl ester are scraped into 7 mL scintillation vials. 4 mL of scintillant are added to each vial, and the radioactivity quantified. Background count is determined by the boiled controls. Full activity is determined by activity in the presence of vehicle. The percent inhibition is calculated by subtracting the background from both control and test samples, and the test value is calculated as a percentage of the control.
For the in vitro ACAT data, negative percent inhibition denotes apparent stimulation,while positive numbers denote inhibition.

Hyperlipidemic Hamster = test: In Vivo Assay of Hypolipidemic Agents Using the Hyperlipidemic Hamster; settings: Mesocricetus auratus, po, 168 h, 7 days, percent change versus control, negative = lowering; for change in vivo at 25 mg/kg: 25 mg/kg once daily oral; for change in vivo at 50 mg/kg: 50 mg/kg once daily oral
Method in brief: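 Hamsters, six per group, were fed chow with 0.5% cholesterol for seven days and given compound once daily by oral gavage in corn oil; controls received corn oil alone. Plasma (EDTA) and liver lipids were measured at sacrifice. Values are percent change versus control, so negative means lowering.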

[1] = read-out: % Reduction (in vivo) Cholest. Esters
[2] = read-out: % Reduction (in vivo) Serum Cholest.

SMILES | inhibition at 10 µM (ACAT) | change in vivo at 25 mg/kg (Hyperlipidemic Hamster; [1]) | change in vivo at 25 mg/kg (Hyperlipidemic Hamster; [2]) | change in vivo at 50 mg/kg (Hyperlipidemic Hamster; [1]) | change in vivo at 50 mg/kg (Hyperlipidemic Hamster; [2]) | pIC50 (ACAT)
COc1ccc(N2C(=O)[C@H](CCCc3ccccc3)[C@H]2c2ccc(O)cc2)cc1 (relative stereo) [Example 8F] | 8% | -45% | -20% | -48% | -16% | –
COc1ccc([C@@H]2[C@@H](CCOc3ccccc3)C(=O)N2c2ccc(OC)cc2)cc1 (relative stereo) [Example 5X] | 38% | – | – | -39% | 0% | –
CCCCCCCCCC[C@@H]1C(=O)N(c2ccc(OC)cc2)[C@@H]1c1ccc(OC)cc1 (relative stereo) [Example 1CL] | 89% | – | – | -18% | 0% | –
COc1ccc(N2C(=O)[C@H](CCCc3ccccc3)[C@H]2c2cccc(OC)c2)cc1 (relative stereo) [Example 5C] | 21% | – | – | -24% | -17% | –
CCCCCCCCCCC1C(=O)N(c2c(OC)cc(OC)cc2OC)C1c1ccccc1 (centres unmarked) [Example 1U] | 58% | – | – | 0% | 0% | 4.72
COc1ccc(N2C(=O)[C@H](CCCc3ccccc3)[C@@H]2c2ccc3c(c2)OCO3)cc1 (relative stereo) [Example 1CN] | -28% | – | – | 0% | 0% | –
COc1ccc([C@@H]2[C@H](CCCc3ccccc3)C(=O)N2c2ccc(O)cc2)cc1 (relative stereo) [Example 15B] | -55% | – | – | -18% | 0% | –
COc1ccc([C@@H]2N(c3ccc(OC)cc3)C(=O)[C@]2(Cc2ccccc2)c2ccccc2)cc1 (relative stereo) [Example 7AF] | 53% | – | – | -15% | 23% | –
COc1ccc([C@H]2[C@@H](CCOc3ccc(F)cc3)C(=O)N2c2ccc(OC)cc2)cc1 (relative stereo) [Example 1CG] | 8% | – | – | -61% | -30% | –
COc1ccc(C=C[C@H]2[C@H](CCCc3ccccc3)C(=O)N2c2ccc(OC)cc2)cc1 (relative stereo) [Example 1M] | 80% | -31% | -11% | – | – | 5.15
COc1ccc([C@@H]2N(c3ccc(OC)cc3)C(=O)[C@@]2(c2ccccc2)C2CCCC2)cc1 (relative stereo) [Example 7AD] | -22% | – | – | -12% | -12% | –
COc1ccc(N2C(=O)[C@H](CCCc3ccccc3)[C@@H]2c2ccc(CN3CCN(C)CC3)cc2)cc1 (relative stereo) [Example 19B] | 53% | – | – | -31% | -26% | –
CC[C@@H]1C(=O)N(c2ccc(OC)cc2)[C@H]1C=Cc1ccccc1 (relative stereo) [Example 1AG] | -3% | – | – | -29% | -16% | –
COc1ccc(N2C(=O)[C@@H](CCCc3ccccc3)[C@@H]2c2cccs2)cc1 (relative stereo) [Example 1BQ] | 35% | – | – | -17% | 0% | –
COc1ccc(N2C(=O)[C@@](Cc3ccccc3)(c3ccccc3)[C@@H]2c2ccccc2)cc1 (relative stereo) [Example 1X] | 9% | – | – | 0% | -12% | –
CCCCCCCCCC[C@]1(CC)C(=O)N(c2c(OC)cc(OC)cc2OC)[C@@H]1c1ccccc1 (relative stereo) [Example 3V] | 60% | – | – | 0% | 0% | 5.19
COc1ccc([C@H]2[C@@H](CCCc3ccccc3)C(=O)N2c2ccc(OCc3ccccc3)cc2)cc1 (relative stereo) [Example 35] | 18% | – | – | -32% | -15% | –
COc1ccc(N2C(=O)[C@H](CCCc3ccccc3)[C@H]2c2ccc3c(c2)OCO3)cc1 (relative stereo) [Example 5Q] | -36% | – | – | -19% | 0% | –
COc1ccc(N2C(=O)[C@H](CCCc3ccccc3)[C@@H]2c2ccc(SC)cc2)cc1 (relative stereo) [Example 1AU] | 44% | – | – | -21% | 0% | –
CC[C@@]1(c2ccccc2)C(=O)N(c2ccc(OC)cc2)[C@H]1c1ccc(OC)cc1 (relative stereo) [Example 1CK] | -12% | – | – | -28% | 0% | –
COc1ccc(N2C(=O)[C@H](CCCc3ccccc3)[C@@H]2c2ccc(C(F)(F)F)cc2)cc1 (relative stereo) [Example 1BH] | 50% | – | – | 0% | 0% | –
COc1ccc(N2C(=O)[C@H](CCCc3ccccc3)[C@H]2c2ccoc2)cc1 (relative stereo) [Example 1BF] | -17% | – | – | -23% | 0% | –
